Measured values reported in patent publication US9345669B2, “Biodegradable natural films based on co-products derived from industrial-scale seed-treatment processes” (Sojasun Technologies, priority 2011, dated 2016).

Experiment: Diffusion of isoflavones from films into an agar plate (gelose) matrix simulating the vaginal mucous membrane
Format: physicochemical
Text: FIG. 1 is a flowchart pertaining to the protocol for evaluating the diffusion of isoflavones made out of films according to the invention towards a matrix simulating the vaginal mucous membrane;
The films according to the present invention meeting the formulations 1 to 6 described here above were associated with an extract obtained from soybeans. The extract is incorporated directly into the mixture so that its content is 4.2% by mass. This extract has the particular feature of being rich in isoflavones and especially having high daidzin and genistin content.
The tests explained here below show the possible use of films according to the invention for making products for administering active ingredients by diffusion of these ingredients from the film towards the vaginal mucous membrane.
In these tests, in order to model the vaginal mucous membrane, an agar plate with an Agar concentration of 30 g/l was used.
The diffusion of daidzin and genistin in the lower agar plate and the upper agar plate was studied with films complying with the formulations 1, 2 and 3 described here above. The results of this study are indicated in the two graphs of FIG. 2.
The influence of the proportion by weight of film-forming agent (sodium caseinate (NaCAS)) in films according to the invention meeting the formulations 5, 2 and 4 described here above on the diffusion of daidzin (a) and genistin (b) has also been studied. The results of this study are indicated in the two graphs shown in FIG. 3 in which the concentration in isoflavones diffused has been related in terms of percentage to the case where the entire active ingredient would have been diffused.
The hydrophobic agent chosen for this study is soy lecithin. A suspension of this compound was also prepared using 5 g of soy lecithin powder mixed with 10 mL of ultra-pure water. The films complying with the formulations 1 and 2 were then coated with this suspension (on the upper and lower faces) and then placed on gelose in order to carry out migration tests.
Two rates of plasticization were examined, corresponding to the formulations 4 and 5 of the films according to the invention described here above.

Daidzin
concentration in gelose under equilibrium (films of formulations 1, 2 and 3 with 4.2% soybean extract, agar 30 g/l (FIG. 2)): about 10 μg/mL | isoflavone diffused towards the gelose after 24 hours of contact (films of formulations 5, 2 and 4 (varied proportion of sodium caseinate), % of total active ingredient (FIG. 3)): more than 90% | isoflavone diffused in the gelose after 48 hours of contact, with soy lecithin coating (formulations 1 and 2 coated with soy lecithin on upper and lower faces (FIG. 4)): 40% | isoflavone diffused after 30 hours, plasticization rate 20% (plasticization rate 20% glycerol (FIG. 5)): 90% | isoflavone diffused after 30 hours, glycerol rate 30% by mass (plasticization rate 30% glycerol (FIG. 5)): ~100%
